Assay results: patent publication US6914045B2, “Glycopeptide antibiotics” (Wyeth Holdings Corporation, priority 2001, dated 2005)
≈ marks a conversion by molar mass, not a printed value.

Legend:
Assay in all cases: in vitro antibacterial evaluation, MIC by broth dilution
Format in all cases: cell-based
Enterococcus sp. = settings: broth dilution, 18 hours at 35° C.
Description: (§1) Methods for in vitro Antibacterial Evaluation (Table 1)
(§2) The minimum inhibitory concentration (MIC), the lowest concentration of the antibiotic which inhibits growth of the test organism, is determined by the broth dilution method using Muller-Hinton II […] (Baltimore Biological Laboratories) following the recommendations of the National Committee for Clinical Laboratory Standards [Methods for dilution antimicrobial susceptibility tests for bacteria that grow aerobically, approved standard M7-A2, National Committee for Clinical Laboratory Standards, Villanova, Pa.].
(§3) An inoculum level of 5×10^5 CFU/mL, and a range of antibiotic concentrations (64-0.06 μg/mL) is used. […] The test organisms include a spectrum of Gram-positive bacteria comprised of Staphylococcus sp., Streptococcus sp. and Enterococcus sp. These organisms include recent clinical isolates that are resistant to methicillin, penicillin and/or vancomycin.

Staphylococcus sp. = settings: broth dilution, 18 hours at 35° C.; for MIC Staphylococcus aureus (GC 1131): strain GC 1131
Description: as §1, §2, §3

Streptococcus sp. = settings: broth dilution, 18 hours at 35° C.
Description: as §1, §2, §3

Escherichia coli = settings: 18 hours at 35° C.

MIC Enterococcus avium (GC 4558) (Enterococcus sp.): 16 µg/mL (≈ 9.9 µM)
MIC Enterococcus faecalis (ATCC 29212) (Enterococcus sp.): >64 µg/mL
MIC Enterococcus faecalis (GC 2242) (Enterococcus sp.): >64 µg/mL
MIC Enterococcus faecalis (GC 2691) (Enterococcus sp.): >64 µg/mL
MIC Enterococcus faecalis (GC 3059) (Enterococcus sp.): >64 µg/mL
MIC Enterococcus faecalis (GC 4552) (Enterococcus sp.): >64 µg/mL
MIC Enterococcus faecalis (GC 4553) (Enterococcus sp.): 64 µg/mL (≈ 39.6 µM)
MIC Enterococcus faecalis (GC 4554) (Enterococcus sp.): >64 µg/mL
MIC Enterococcus faecalis (GC 6189) (Enterococcus sp.): 64 µg/mL (≈ 39.6 µM)
MIC Enterococcus faecium (GC 2243) (Enterococcus sp.): 64 µg/mL (≈ 39.6 µM)
MIC Enterococcus faecium (GC 4556) (Enterococcus sp.): >64 µg/mL
MIC Enterococcus faecium (GC 4557) (Enterococcus sp.): 8 µg/mL (≈ 4.95 µM)
MIC Enterococcus faecalis (ATCC 29212) (Enterococcus sp.; inoculum 5×10^5 CFU/mL, strain ATCC 29212): >64 µg/mL
MIC Enterococcus faecalis (GC 2242) (Enterococcus sp.; inoculum 5×10^5 CFU/mL, strain GC 2242): >64 µg/mL
MIC Enterococcus faecium (GC 2243) (Enterococcus sp.; inoculum 5×10^5 CFU/mL, strain GC 2243): 64 µg/mL (≈ 39.6 µM)
MIC Enterococcus faecalis (GC 2691) (Enterococcus sp.; inoculum 5×10^5 CFU/mL, strain GC 2691): >64 µg/mL
MIC Enterococcus faecalis (GC 3059) (Enterococcus sp.; inoculum 5×10^5 CFU/mL, strain GC 3059): >64 µg/mL
MIC Enterococcus faecalis (GC 4552) (Enterococcus sp.; inoculum 5×10^5 CFU/mL, strain GC 4552): >64 µg/mL
MIC Enterococcus faecalis (GC 4553) (Enterococcus sp.; inoculum 5×10^5 CFU/mL, strain GC 4553): 64 µg/mL (≈ 39.6 µM)
MIC Enterococcus faecalis (GC 4554) (Enterococcus sp.; inoculum 5×10^5 CFU/mL, strain GC 4554): >64 µg/mL
MIC Enterococcus faecium (GC 4556) (Enterococcus sp.; inoculum 5×10^5 CFU/mL, strain GC 4556): >64 µg/mL
MIC Enterococcus faecium (GC 4557) (Enterococcus sp.; inoculum 5×10^5 CFU/mL, strain GC 4557): 8 µg/mL (≈ 4.95 µM)
MIC Enterococcus avium (GC 4558) (Enterococcus sp.; inoculum 5×10^5 CFU/mL, strain GC 4558): 16 µg/mL (≈ 9.9 µM)
MIC Enterococcus faecalis (GC 6189) (Enterococcus sp.; inoculum 5×10^5 CFU/mL, strain GC 6189): 64 µg/mL (≈ 39.6 µM)
MIC Staphylococcus aureus (GC 1131) (Staphylococcus sp.; inoculum 5×10^5 CFU/mL): 16 µg/mL (≈ 9.9 µM)
MIC Staphylococcus aureus (ATCC 29213) (Staphylococcus sp.; strain ATCC 29213): 32 µg/mL (≈ 19.8 µM)
MIC Staphylococcus aureus (GC 1131) (Staphylococcus sp.): 16 µg/mL (≈ 9.9 µM)
MIC Staphylococcus aureus (GC 3051) (Staphylococcus sp.; strain GC 3051): 64 µg/mL (≈ 39.6 µM)
MIC Staphylococcus aureus (GC 3053) (Staphylococcus sp.; strain GC 3053): 64 µg/mL (≈ 39.6 µM)
MIC Staphylococcus aureus (GC 4541) (Staphylococcus sp.; strain GC 4541): 16 µg/mL (≈ 9.9 µM)
MIC Staphylococcus aureus (GC 4542) (Staphylococcus sp.; strain GC 4542): 64 µg/mL (≈ 39.6 µM)
MIC Staphylococcus aureus-SMITH (GC 4543) (Staphylococcus sp.; strain GC 4543): 16 µg/mL (≈ 9.9 µM)
MIC Staphylococcus aureus (GC 4544) (Staphylococcus sp.; strain GC 4544): 32 µg/mL (≈ 19.8 µM)
MIC Staphylococcus aureus (GC 4545) (Staphylococcus sp.; strain GC 4545): 32 µg/mL (≈ 19.8 µM)
MIC Coagulase Negative Staphylococcus (GC 4547) (Staphylococcus sp.; strain GC 4547): 32 µg/mL (≈ 19.8 µM)
MIC Coagulase Negative Staphylococcus (GC 4548) (Staphylococcus sp.; strain GC 4548): 8 µg/mL (≈ 4.95 µM)
MIC Coagulase Negative Staphylococcus (GC 4549) (Staphylococcus sp.; strain GC 4549): 8 µg/mL (≈ 4.95 µM)
MIC Coagulase Negative Staphylococcus (GC 4551) (Staphylococcus sp.; strain GC 4551): 16 µg/mL (≈ 9.9 µM)
MIC Coagulase Negative Staphylococcus (GC 6257) (Staphylococcus sp.; strain GC 6257): 4 µg/mL (≈ 2.48 µM)
MIC Streptococcus agalactiae (GC 4564) (Streptococcus sp.): 16 µg/mL (≈ 9.9 µM)
MIC Streptococcus pneumoniae (ATCC 6301) (Streptococcus sp.): 4 µg/mL (≈ 2.48 µM)
MIC Streptococcus pneumoniae (GC 1894) (Streptococcus sp.): 8 µg/mL (≈ 4.95 µM)
MIC Streptococcus pneumoniae (GC 4565) (Streptococcus sp.): 8 µg/mL (≈ 4.95 µM)
MIC Streptococcus pyogenes (GC 4563) (Streptococcus sp.): 16 µg/mL (≈ 9.9 µM)
MIC Streptococcus pneumoniae (ATCC 6301) (Streptococcus sp.; inoculum 5×10^5 CFU/mL, strain ATCC 6301): 4 µg/mL (≈ 2.48 µM)
MIC Streptococcus pneumoniae (GC 1894) (Streptococcus sp.; inoculum 5×10^5 CFU/mL, strain GC 1894): 8 µg/mL (≈ 4.95 µM)
MIC Streptococcus pyogenes (GC 4563) (Streptococcus sp.; inoculum 5×10^5 CFU/mL, strain GC 4563): 16 µg/mL (≈ 9.9 µM)
MIC Streptococcus agalactiae (GC 4564) (Streptococcus sp.; inoculum 5×10^5 CFU/mL, strain GC 4564): 16 µg/mL (≈ 9.9 µM)
MIC Streptococcus pneumoniae (GC 4565) (Streptococcus sp.; inoculum 5×10^5 CFU/mL, strain GC 4565): 8 µg/mL (≈ 4.95 µM)
MIC Escherichia coli (ATCC 25922) (Escherichia coli): 32 µg/mL (≈ 19.8 µM)
MIC Escherichia coli (GC 4559) (Escherichia coli): 64 µg/mL (≈ 39.6 µM)
MIC Escherichia coli (GC 4560) (Escherichia coli): 16 µg/mL (≈ 9.9 µM)
Structure (SMILES): Cc1ccc(Oc2cccc(C3OCC4OC(OC5C(CO)OC(Oc6ccc(CC7NC(=O)C(C(C)c8ccccc8)NC(=O)CNC(=O)C(CO)NC(=O)C(C(O)C8CNC(=N)N8C8OC(CO)C(O)C(O)C8O)NC(=O)C(C(O)C8CNC(=N)N8)NC7=O)cc6I)C(O)C5O)C(O)C(O)C4O3)c2)cc1 (centres unmarked) [Example 197]
MIC Staphylococcus haemolyticus (GC 4546) (Staphylococcus sp.; strain GC 4546): 32 µg/mL (≈ 19.8 µM)
